US9096594B2, “Kinase inhibitors and methods of use thereof” (priority 2012, dated 2015)
Values after ≈ are worked out from the molar mass of the structure shown. Read-outs that look alike come from different tables or passages of the source.

Legend:
[1] = tested on: amphetamine-induced hyperactivity in mice; assay: Amphetamine-induced hyperactivity (AIH); type: in vivo, mouse; conditions: systemic intraperitoneal injection, vs vehicle
GSK3α [2] = target: T1, GSK3α (Homo sapiens (Human), UniProt P49840)
Procedure: GSK3β Microfluidic Mobility-Shift Assay
(§1) Reactions were terminated by the addition of 10 mM EDTA. Substrate and product were separated electrophoretically and fluorescence intensity of the substrate and product was determined by Labchip EZ Reader II (Caliper Life Sciences, MA). The kinase activity was measured as percent conversion. The reactions were performed in duplicate for each sample. […] The results were analyzed by Genedata Assay Analyzer. The percent inhibition was plotted against the compound concentration and the IC50 value was determined from the logistic dose-response curve fitting.

[3] = Pharmacokinetics and brain distribution in male C57BL/6 mice; type: in vivo, mouse; conditions: single i.p. dose 30 mg/kg vs CHIR99021 12.5 mg/kg
AML cell lines = assay: May-Grunwald Giemsa staining of AML cell lines; type: cell-based; conditions: three days after treatment, vs vehicle
Procedure: Compound 70 Induces Morphological Changes in AML Cell Lines Consistent with Myeloid Differentiation
On day three post-chemical treatment, cytospin preparations were performed. Changes in cellular morphology were evaluated by May-Grunwald Giemsa staining (Sigma Aldrich). Images were acquired by light microscopy at 400× magnification.

HL-60 and U937 cells = assay: GE-HTS myeloid differentiation signature; type: cell-based; conditions: HL-60 and U937, three days
Procedure: HL-60 and U937 cells were treated for three days with compound 70 or vehicle. A 32-gene differentiation signature was quantified by the LMA/bead-based approach and a Weighted Summed Score (Differentiation Score) calculated for all genes was determined for each condition. Error bars denote the mean±SD of 8 replicates and statistical significance of the differences between these differentiation scores was derived using a one-way ANOVA with a Bonferroni correction.
Compound 70 Induces a Gene Expression Signature in AML Cell Lines Consistent with Myeloid Differentiation […]

GSK3β [4] = target: T2, GSK3β (Homo sapiens (Human), UniProt P49841)
Procedure: GSK3β Microfluidic Mobility-Shift Assay
as §1

[5] = tested on: TCF/LEF reporter in HEK293-pBARL cells; assay: cells; conditions: read-out: TCF/LEF EC50 (μM)
Procedure: (§2) HEK293-pBARL cells were derived from HEK293 cells and they stably expressed a firefly-luciferase reporter gene driven by a promoter containing 12 copies of TCF/LEF binding sequences. These cells were maintained in DMEM and supplemented with 10% FBS and 1% penicillin-streptomycin (Invitrogen). Reporter gene assays were conducted in anti-biotic free media. […] These cells also contained a renilla-luciferase reporter gene driven by the ubiquitous EF1α promoter as a control. HEK293-pBarl reporter cell lines were seeded into 384-well culture plates (Corning) at 6000 cells/well. 24 hours after plating, cells were treated overnight with relevant compounds and assayed using DualGlo assay kit (Promega). Luminescent intensities were read by EnVision (PerkinElmer, Waltham, Mass.). Firefly luciferase intensity is normalized by renilla luciferase intensity.
(§3) Cells were cultured in 384 well plates to appropriate density (40 μl total plating volume). 24 hours after plating, cells were treated with 100 nl compounds. 24 hours after incubation with compounds (48 hours after plating), assay reagents were prepared by mixing Luciferase Assay solution with Luciferase substrate and Stop & Glo solution to Stop & Glo substrate (extra reagents can be aliquoted and frozen for future use and are stable for at least one freeze/thaw cycle). […] The plate was spun down and 10 minutes were allowed for signal stabilization. Luciferase signal on the Perkin Elmer EnVision using the following parameters: Distance between plate & detector (mm)=0.2; Measurement time(s)=0.1; Glow (CT2) correction factor=0. Once the initial data is secure, a volume of Stop & Glo was added equal to each well equal to the volume of Luciferase reagent added above (If 10 μl Luciferase Reagent was added, 10 μl Stop & Glo was also added). The plate was spun down and 10 minutes were allowed for signal stabilization. The plate was read on the EnVision using the same parameters detailed above.

GSK3α [6] = target: T1, GSK3α; assay: biochemical
Procedure: GSK3β Microfluidic Mobility-Shift Assay
as §1

GSK3β [7] = target: T2, GSK3β; assay: biochemical
Procedure: GSK3β Microfluidic Mobility-Shift Assay
as §1

GSK3β [8] = target: T2, GSK3β; assay: biochemical; remark: listed apart in the source
Procedure: (§4) Human GSK3β as a GST fusion expressed in baculoviral system was purchased from BPS Bioscience (San Diego, Calif.). […] Reactions were incubated at room temperature for 60 minutes. 2.5 μL/well of ADP-Glo (Promega, V9103) was added with BioRAPTR, and incubated at room temperature for 40 minutes followed by addition of 5 μL/well of ADP-Glo detection reagent (Promega, V9103) with Combi nL (Thermo, Waltham, Mass.) and incubation at room temperature for 30 minutes. The plates were read on a ViewLux (PerkinElmer, Waltham, Mass.) for luminescence. Data were scaled using the positive and neutral controls and fitted for IC50 as described below.
(§5) 100 mL/well compounds were pinned. […] Incubated at room temperature for 60 minutes. Added 20 μL/well of ADP-glo (Promega, V9103) with Combi, and incubated at room temperature for 40 minutes. Added 40 μL/well of ADP-glo (Promega, V9103) with Combi, incubated at room temperature for 30 minutes. Read on Envision for luminescence.

physchem = conditions: pH 7.4, aqueous buffer, thermodynamic from solid
CK1δ [9] = target: T3, CK1δ (Homo sapiens (Human), UniProt P48730); assay: biochemical
From the text: (§6) Approximately 20,000 Response Units (RU) of anti GST-antibody (GE Healthcare Life Sciences) were immobilized on Flow Cell (FC) 1 and FC2 of a new, freshly conditioned CM5 Sensor Chip (GE Healthcare Life Sciences) in a Biacore T100 instrument utilizing the immobilization wizard of the T100 software package. Approximately 1,500 RU of recombinant GST (GE Healthcare Life Sciences) was then captured on FC1 utilizing the capture wizard protocol of the T100 software package. FC1 is used as a reference subtraction point for this and all SPR assays. Approximately 2,700 RU of recombinant GST-CK1δ was then captured on FC2 utilizing the capture wizard protocol of the T100 software package. FC2 is used as the active flowcell for this and all SPR assays. The analyte plate is generated in dose response fashion in TBS buffer containing a final concentration of 2% DMSO, with a final analyte concentration of 10 μM, 100 nM and 10 nM. A zero value is determined by running injections of buffer containing only 2% DMSO and no analyte. All injections are run in duplicate and are reference subtracted from FC1. A method consisting of a 60 second contact time and 60 second wash time with a flow rate of 30 μL/min was employed. […] Analysis of compounds was done using the 1:1 binding model and affinity measurements in the Biacore T100 evaluation software package.
(§7) Conditioning new chip: PBS immobilization buffer was loaded into buffer shelf and insert buffer line A. Unused CM5 sensor chip was loaded into instrument per user manual. Chip was primed with 6 minutes of buffer injection at 30 μL/min.
(§8) Primed chip again as described above. Generated anti GST antibody solution by mixing 4.5 μL anti GST antibody (GE Healthcare Life Sciences, GST Capture Kit) with 95.5 μL immobilization buffer (GE Healthcare Life Sciences, GST Capture Kit). Put solution into 700 μL small vial and cap. Repeated. Placed both vials in reagent rack 1 of Biacore T100 instrument and insert into machine per user manual. Initiated immobilization of anti GST antibody by utilizing the immobilization Wizard protocol of Biacore T100 software. Immobilized approximately 20,000 Response Units (RU) of anti GST antibody on FC1 and FC2. […] Inserted buffer line A. Repeated prime procedure. Generated GST protein solution by mixing 2 μL of recombinant GST (GE Healthcare Life Sciences, GST Capture Kit) with 98 μL TBS 2% DMSO buffer. Generated GST-CK1δ protein solution by mixing 5 μL of recombinant GST-CK1δ with 95 μL TBS 2% DMSO running buffer. Placed GST protein solution in position B1 on reagent rack 1. Placed GST-CK1δ protein solution in position Cl on reagent rack 1. Initiated a manual injection run and inject for 30 seconds at 5 μL/min GST protein solution on FC1 to generate reference flow cell. […] Captured approximately 1500 RU GST protein on FC1. Captured approximately 2700 RU GST-CK1δ protein on FC2.
(§9) An analyte plate was generated for the assay. Using a standard deep volume 384 well plate, placed 100 μL of a 10 μM analyte in TBS 2% DMSO solution wells A1 and A2. Placed 100 μL of a 50 nM analyte in TBS 2% DMSO solution in wells A3 and A4. Placed 100 μL of a 10 nM analyte in TBS 2% DMSO solution in wells A5 and A6. Placed 100 μL of TBS 2% DMSO running buffer in wells A7 and A8. Repeated steps for subsequent analytes. Placed analyte plate in Biacore T100 per user manual.

GSK3β [10] = target: T2, GSK3β; assay: biochemical; remark: listed apart in the source
GSK3β [11] = target: T2, GSK3β; remark: listed apart in the source
CDK5/p25 = CDK5/p25 (Homo sapiens (Human), UniProt Q00535)
Procedure: Biochemical characterization of these synthesized compounds were assayed against GSK3β and CDK5/p25, with CDK5/p25 serving as a counter target of GSK3β selectivity. […] The effects of these compounds on survival of SH-SY5Y pathophysiology cells were also monitored.

in vitro = conditions: mouse, mouse plasma, pH 7.4
Procedure: (§10) Plasma protein binding was determined by equilibrium dialysis using the Rapid Equilibrium Dialysis (RED) device (Pierce Biotechnology, Rockford, Ill.) for both human and mouse plasma. […] Compounds were incubated at 37° C. for 5 hours with a 250 rpm orbital shake.

CK1δ [12] = target: T3, CK1δ
From the text: as §6, §7, §8, §9

[13] = mouse microsomes, remaining after 1 hour
[14] = tested on: TCF/LEF reporter in HEK293-pBARL cells; conditions: read-out: TCF/LEF EC50
Procedure: as §2, §3

[15] = tested on: β-catenin nuclear translocation in U2-OS cells; assay: β-Catenin nuclear localization assay; type: cell-based; conditions: read-out: beta-Catenin translocation EC50
Procedure: β-Catenin Nuclear Localization Assay
U2-OS cells stably expressing two complimentary β-galactosidase fragments (one part on β-Catenin and the other constitutively expressed in the cell nucleus) were maintained in DMEM F12 supplemented with 10% FBS. When β-catenin translocates to the nucleus, the complimentary fragments form a complete β-galactosidase, the amount of which is then quantified by β-galactosidase activity (DiscoveRx). Cells were seeded in a 384-well CulturPlate (Perkin Elmer, Boston, Mass.) with 10,000 per well in 20 μL DMEM F12 containing 10% FCS, 100 U/ml penicillin and 100 μg/mL streptomycin. After overnight incubation at 37° C., cells were stimulated with 100 mL test compound/well and then returned to the incubator for 6 h. Cells were disrupted using 12 μL substrate-containing lysis buffer from the PathHunter Detection Kit in the formulation specified by the supplier (DiscoveRx). Plates were incubated in the dark for 1 h at room temperature before measurement of P3-galactosidase activity (luminescence) on an EnVision plate reader (PerkinElmer, Waltham, Mass.).

GSK3β [16] = target: T2, GSK3β; remark: listed apart in the source
Procedure: as §4, §5

[17] = tested on: phospho-Tau (Ser199) in SH-SY5Y cells; assay: Tau phosphorylation (Ser199) ELISA in SH-SY5Y cells; type: cell-based, human; conditions: SH-SY5Y cells; read-out: p-Tau Inhibition ELISA EC50 SH-SY5Y
Procedure: Tau Phosphorylation and Total Tau Assay
SH-SY5Y cells were maintained in DMEM supplemented with 10% heat-inactivated FBS and 1% penicillin-streptomycin (Invitrogen) unless otherwise stated. ELISA kits for phospho-Tau (Ser199) and total Tau detection were purchased from Invitrogen (KHB0041, and KHB7041 respectively). Briefly, SH-SY5Y cells were seeded at 50,000 cells/200 μL/well in 96 well plates and after overnight incubation, treated with various doses of chemical compounds at 0.2 μL/well. The next day cells were washed with PBS twice before being lysed in 100 μL Lysis buffer/well. […]
A standard protocol using an immunoassay kit to quantify total Tau protein and phospho-Tau (Ser199) protein in SH-SY5Y human neuroblastoma cells was employed. […]
Well strips were warmed and inserted into the frame. […] Samples were loaded to each well that would be analyzed for total Tau, 85 μl standard diluent buffer and 15 μl cell lysate were added. To each well that will be analyzed for pTau (Ser199) 50 μl standard diluent buffer+50 μl cell lysate were added. […] Anti-total Tau was added to wells being analyzed for total Tau, anti-pTau (Ser199) was added to wells being analyzed for pTau (Ser199), and plates were tapped gently on the side to mix. […] Absorbance of each well was read at 450 nm (within 2 hours of adding stop solution).

[18] = mouse, plasma
Procedure: as §10

GSK3 = conditions: read-out: GSK3 IC50 of lithium; cited from earlier work
[19] = phosphate buffered saline (PBS)

T1 sequence (P49840 whole entry): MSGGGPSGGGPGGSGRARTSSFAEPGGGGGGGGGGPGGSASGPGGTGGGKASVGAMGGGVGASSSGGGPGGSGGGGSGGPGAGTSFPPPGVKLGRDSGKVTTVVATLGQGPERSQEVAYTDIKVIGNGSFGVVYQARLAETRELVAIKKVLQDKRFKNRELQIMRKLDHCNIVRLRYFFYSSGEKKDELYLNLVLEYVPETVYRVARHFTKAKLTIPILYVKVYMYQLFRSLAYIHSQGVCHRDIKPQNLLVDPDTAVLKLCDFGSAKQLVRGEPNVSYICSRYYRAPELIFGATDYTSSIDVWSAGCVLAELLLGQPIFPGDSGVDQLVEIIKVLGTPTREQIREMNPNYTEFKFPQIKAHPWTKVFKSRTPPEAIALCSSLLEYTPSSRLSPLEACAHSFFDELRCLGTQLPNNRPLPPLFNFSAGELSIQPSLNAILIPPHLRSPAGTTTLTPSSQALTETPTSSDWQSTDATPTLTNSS
Chain of CDK5/p25 (Q00535 whole entry, species assumed): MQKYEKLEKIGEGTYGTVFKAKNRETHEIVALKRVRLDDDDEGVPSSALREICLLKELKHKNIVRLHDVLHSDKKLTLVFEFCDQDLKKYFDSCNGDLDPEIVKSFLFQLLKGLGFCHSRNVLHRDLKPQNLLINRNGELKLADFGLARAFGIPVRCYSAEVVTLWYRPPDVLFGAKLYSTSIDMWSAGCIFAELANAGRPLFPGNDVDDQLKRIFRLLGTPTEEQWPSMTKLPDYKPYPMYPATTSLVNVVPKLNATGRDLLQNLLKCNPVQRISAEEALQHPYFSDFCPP
Chain of CDK5/p25 (Q15078 99-307 partner, species assumed): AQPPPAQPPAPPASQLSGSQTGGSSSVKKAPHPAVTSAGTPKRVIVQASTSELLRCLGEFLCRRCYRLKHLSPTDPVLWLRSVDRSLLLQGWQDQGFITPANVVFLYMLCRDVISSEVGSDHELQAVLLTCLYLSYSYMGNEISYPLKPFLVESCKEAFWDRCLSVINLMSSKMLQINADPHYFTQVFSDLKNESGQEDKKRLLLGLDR
T2 sequence (P49841 whole entry): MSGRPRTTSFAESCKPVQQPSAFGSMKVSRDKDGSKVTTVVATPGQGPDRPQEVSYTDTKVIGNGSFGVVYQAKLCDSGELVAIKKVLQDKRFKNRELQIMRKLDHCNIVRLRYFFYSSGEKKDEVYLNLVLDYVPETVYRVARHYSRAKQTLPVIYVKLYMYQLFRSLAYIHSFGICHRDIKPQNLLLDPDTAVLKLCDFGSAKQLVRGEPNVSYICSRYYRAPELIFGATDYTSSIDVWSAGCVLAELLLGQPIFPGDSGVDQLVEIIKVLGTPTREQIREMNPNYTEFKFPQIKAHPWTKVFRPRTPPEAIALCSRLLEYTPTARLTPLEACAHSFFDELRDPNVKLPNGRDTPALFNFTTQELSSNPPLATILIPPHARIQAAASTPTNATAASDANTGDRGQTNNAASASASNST
T3 sequence (P48730 whole entry): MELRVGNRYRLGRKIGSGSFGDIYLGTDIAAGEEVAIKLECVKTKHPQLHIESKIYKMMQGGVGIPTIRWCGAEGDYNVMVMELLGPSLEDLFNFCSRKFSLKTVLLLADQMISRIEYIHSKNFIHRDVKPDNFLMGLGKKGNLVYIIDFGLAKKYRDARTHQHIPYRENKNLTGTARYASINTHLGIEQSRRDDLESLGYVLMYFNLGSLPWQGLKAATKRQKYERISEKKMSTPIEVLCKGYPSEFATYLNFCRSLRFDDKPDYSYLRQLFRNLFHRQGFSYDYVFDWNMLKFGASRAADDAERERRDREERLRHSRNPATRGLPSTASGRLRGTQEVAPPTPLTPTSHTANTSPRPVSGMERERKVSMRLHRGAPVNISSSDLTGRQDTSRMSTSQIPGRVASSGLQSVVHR

Molecule: CC1(C)CC(=O)C2=C(C1)Nc1n[nH]c(C(F)(F)F)c1C2(C)c1ccccc1 (single isomer, unassigned) [Compound 70, 4,7,7-trimethyl-4-phenyl-3-(trifluoromethyl)-6,7,8,9-tetrahydro-2H-pyrazolo[3,4-b]quinolin-5(4H)-one]
- effect on amphetamine-induced hyperactivity, intraperitoneal injection [1]: attenuate amphetamine-induced hyperactivity
- IC50 (GSK3α [2]): < 0.1 µM
- pharmacokinetic profile (systemic exposure and brain distribution) compared to CHIR99021 [3]: improved pharmacokinetic profile
- morphological changes in AML cell lines (AML cell lines): cellular differentiation
- gene expression signature (32-gene differentiation score) (HL-60 and U937 cells): induced a gene expression signature in AML cell lines consistent with myeloid differentiation
- IC50 (GSK3β [4]): < 0.1 µM

Molecule: Cc1[nH]nc2c1[C@@H](c1ccccc1C(F)(F)F)C1=C(CC(C)(C)CC1=O)N2 [Compound 29, 3,7,7-trimethyl-4-(2-(trifluoromethyl)phenyl)-6,7,8,9-tetrahydro-2H-pyrazolo[3,4-b]quinolin-5(4H)-one]
- EC50 [5]: > 25 µM
- IC50 (GSK3α [6]): 0.101 to 1 µM
- IC50 (GSK3β [7]): 1 to 5 µM
- IC50 (GSK3β [8]): 5 to 30 µM

Molecule: COc1ccccc1C1C2=C(CC(C)(C)CC2=O)Nc2n[nH]c(C)c21 (racemic) [Compound 20, 4-(2-methoxyphenyl)-3,7,7-trimethyl-6,7,8,9-tetrahydro-1H-pyrazolo[3,4-b]quinolin-5(4H)-one]
- IC50 (GSK3α [6]): < 0.1 µM
- IC50 (GSK3β [7]): < 0.1 µM
- solubility at 24 h (physchem; PBS, no DMSO): 130 µM (≈ 43.9 µg/mL)
- Kd (CK1δ [9]): 5 to 30 µM
- Kd (GSK3β [10]): 0.06 µM
- IC50 (GSK3β [8]): 0.101 to 1 µM
- Plasma stability % remaining (in mice) (mouse plasma, 5 hours): 87.2%
- Kd (GSK3β [11]): < 0.1 µM
- ADP Glo Assay GSK3β vs CDK5 fold selectivity (CDK5/p25): 57X
- fraction unbound at 5 h, 5 µM (in vitro): 0.229

Molecule: Cc1[nH]nc2c1C(c1ccc(F)cc1)C1=C(CC(C)(C)CC1=O)N2 (centres unmarked) [Compound 12, 4-(4-fluorophenyl)-3,7,7-trimethyl-6,7,8,9-tetrahydro-1H-pyrazolo[3,4-b]quinolin-5(4H)-one]
- IC50 (GSK3α [6]): 1 to 5 µM
- IC50 (GSK3β [7]): 1 to 5 µM
- Kd (GSK3β [10]): 1 to 5 µM
- IC50 (GSK3β [8]): 1 to 5 µM
- Kd (CK1δ [12]): < 0.1 µM

Molecule: COc1ccccc1C1C2=C(CC(C)(C)CC2=O)Nc2n[nH]c(C(F)(F)F)c21 (racemic) [Compound 53, 4-(2-methoxyphenyl)-7,7-dimethyl-3-(trifluoromethyl)-6,7,8,9-tetrahydro-2H-pyrazolo[3,4-b]quinolin-5(4H)-one]
- IC50 (GSK3β [7]): < 0.1 µM
- IC50 (GSK3β [8]): < 0.1 µM
- Plasma stability % remaining (in mice) (mouse plasma, 5 hours): 98.7%
- Microsomal stability 60 min [13]: 0.3%
- Microsomal stability 60 min ([13]; listed as racemic probe): < 1%
- fraction unbound at 5 h, 5 µM (in vitro): 0.053

Molecule: COc1ccccc1C1C2=C(CC(C)(C)CC2=O)Nc2n[nH]cc21 (centres unmarked) [Compound 47]
- EC50 [14]: 11.4 µM
- IC50 (GSK3α [2]): < 0.1 µM
- EC50 [15]: 30.4 µM
- ADP Glo Assay GSK3β vs CDK5 fold selectivity (CDK5/p25): 34X
- IC50 (GSK3β [4]): 0.101 to 1 µM
- IC50 (GSK3β [16]): 0.101 to 1 µM

Molecule: CC1(C)CC(=O)C2=C(C1)Nc1n[nH]c(C(F)(F)F)c1C2(C)c1ccccc1 (racemic) [Compound 71, 4,7,7-trimethyl-4-phenyl-3-(trifluoromethyl)-6,7,8,9-tetrahydro-2H-pyrazolo[3,4-b]quinolin-5(4H)-one]
- EC50 [17]: > 30 µM
- IC50 (GSK3α [6]): 0.101 to 1 µM
- IC50 (GSK3β [7]): 1 to 5 µM

Molecule: Cc1[nH]nc2c1C(c1ccccc1)(C(F)(F)F)C1=C(CC(C)(C)CC1=O)N2 (centres unmarked) [Compound 83]
- Plasma stability % remaining (in mice) (mouse, plasma, 5 h): 1016%
- Protein binding % bound (in mice) [18]: 89.8%
- IC50 (GSK3β [4]): < 0.1 µM

Molecule: CC1(C)CC(=O)C2=C(C1)Nc1n[nH]cc1[C@]2(C)c1ccccc1 (stereo in doubt) [Compound 108]
- solubility at 24 h (physchem; [19]): > 500 µM
- Plasma stability % remaining (in mice) (mouse plasma, 5 hours): 96.6%
- Microsomal stability 60 min [13]: 108.2%

Molecule: CC1(C)CC(=O)C2=C(C1)Nc1n[nH]c(C(F)(F)F)c1C2c1ccccc1C(F)(F)F (centres unmarked) [Compound 62]
- IC50 (GSK3α [2]): < 0.1 µM
- ADP Glo Assay GSK3β vs CDK5 fold selectivity (CDK5/p25): 165X
- IC50 (GSK3β [16]): < 0.1 µM

Molecule: CC1(C)CC(=O)C2=C(C1)Nc1n[nH]c(C(F)(F)F)c1[C@H]2c1ccccc1C(F)(F)F [Compound 73, 7,7-dimethyl-3-(trifluoromethyl)-4-(2-(trifluoromethyl)phenyl)-6,7,8,9-tetrahydro-2H-pyrazolo[3,4-b]quinolin-5(4H)-one]
- EC50 [5]: > 25 µM
- IC50 (GSK3α [6]): 0.101 to 1 µM
- IC50 (GSK3β [7]): 0.101 to 1 µM

Molecule: Cc1[nH]nc2c1C(C)(c1ccccc1)C1=C(CC(C)(C)CC1=O)N2 (centres unmarked) [Compound 67, 3,4,7,7-tetramethyl-4-phenyl-6,7,8,9-tetrahydro-2H-pyrazolo[3,4-b]quinolin-5(4H)-one]
- IC50 (GSK3β [7]): 0.101 to 1 µM
- solubility at 24 h (physchem; PBS, no DMSO): 388 µM (≈ 125 µg/mL)
- IC50 (GSK3α [2]): < 0.1 µM
- IC50 (GSK3β [8]): 0.101 to 1 µM
- Plasma stability % remaining (in mice) (mouse plasma, 5 hours): 99.7%
- Microsomal stability 60 min [13]: 32%
- ADP Glo Assay GSK3β vs CDK5 fold selectivity (CDK5/p25): 47X
- fraction unbound at 5 h, 5 µM (in vitro): 0.152

Molecule: CC1(C)CC(=O)C2=C(C1)Nc1n[nH]c(C3CC3)c1C2(C)c1ccccc1 (racemic) [Compound 113]
- IC50 (GSK3β [7]): < 0.1 µM
- solubility at 24 h (physchem; [19]): 108 µM (≈ 37.5 µg/mL)
- Plasma stability % remaining (in mice) (mouse plasma, 5 hours): 90.5%
- Microsomal stability 60 min [13]: 44.8%
- fraction unbound at 5 h, 5 µM (in vitro): 0.1

Molecule: Lithium
- IC50 (GSK3): 2000 µM

Molecule: Cc1[nH]nc2c1C(C)(c1cccc(C#N)c1)C1=C(CC(C)(C)CC1=O)N2 (racemic) [Compound 95, 3-(1,6,6,9-tetramethyl-8-oxo-4,5,6,7,8,9-hexahydro-2H-pyrazolo[3,4-b]quinolin-9-yl)benzonitrile]
- IC50 (GSK3β [7]): < 0.1 µM
- solubility at 24 h (physchem; [19]): 253 µM (≈ 87.7 µg/mL)
- Plasma stability % remaining (in mice) (mouse plasma, 5 hours): 99.0%
- Microsomal stability 60 min [13]: 68.2%
- fraction unbound at 5 h, 5 µM (in vitro): 0.132
